# Measurements: paper PMC9486086, “Development of a UPLC-MS/MS method for the determination of orelabrutinib in rat plasma and its application in pharmacokinetics” (Frontiers in Pharmacology, 2022)
# Where two headings read alike, the source gives them in different places.
# What was measured:
# [1] = Pharmacokinetic study in rats after single oral dose (UPLC-MS/MS, non-compartmental analysis); format: in vivo; details: male, Sprague-Dawley, rat, plasma, single oral dose of 10 mg/kg, n = 6, mean ± SD
# Source text: Six male Sprague-Dawley (SD) Rats (weighing 250 ± 20 g) were obtained from the Laboratory Animal Center of The First Affiliated Hospital of Wenzhou Medical University (Zhejiang, China). They were housed in an environmentally controlled rearing chamber and given food and water that met the standard for 1 week. The animal experiment was approved by the Ethics Committee for the Protection and Use of Laboratory Animals of The First Affiliated Hospital of Wenzhou Medical University (Zhejiang, China).
# The rats were fasted for 12 h before the start of the experiment and were given free access to water. Oral gavage was administered to rats at a dose of 10 mg/kg of orelabrutinib dissolved in 0.5% sodium carboxymethylcellulose (CMC-Na). Blood was collected at different collection points at 0.333, 0.667, 1, 1.5, 2, 3, 4, 6, 8, 12, 24 and 48 h after administration. After collected, blood in centrifuge tube was centrifuged for 10 min at 13,000 × g at room temperature, and 100 μl of plasma was separated and stored at −80°C prior to analysis. The concentrations of the analyte were determined using this validated UPLC-MS/MS method, while the non-compartmental model was analyzed using DAS 2.0 software (Drug and Statistical Software of the Shanghai Mathematical Pharmacology Professional Committee, China), and pharmacokinetic parameters were calculated.
# [2] = Stability of orelabrutinib in rat plasma under storage and analytical conditions; format: in vitro ADME; details: for Measured concentration, Mean ± SD / RE (relative error vs nominal): n = 5
# Experimental: To investigate the stability of orelabrutinib in rat plasma, QC plasma samples of three concentrations were placed in different environments to examine the short-term, long-term, three freeze-thaw cycles and stability at 10°C. Short-term stability was determined by placing plasma samples at room temperature for at least 3 h. Long-term stability was determined by testing plasma samples after 21 days of storage at −80°C. The stability of the plasma samples was evaluated by measuring the stability of three freeze-thaw cycles from freezing (−80°C) to thawing (room temperature) three times. In addition, the stability was determined by storing the prepared plasma samples in an autosampler (10°C) for 4 h.
# [3] = parameters: method as in Zhang et al., 2020; details: oral, ref Zhang et al., 2020, cited from earlier work
# [4] = prepared plasma samples, autosampler 10°C for 4 h, nominal 2 ng/ml
# [5] = prepared plasma samples, autosampler 10°C for 4 h, nominal 200 ng/ml
# [6] = prepared plasma samples, autosampler 10°C for 4 h, nominal 1600 ng/ml
# [7] = rat plasma, 21 days at −80°C, nominal 2 ng/ml
# [8] = rat plasma, 21 days at −80°C, nominal 200 ng/ml
# [9] = rat plasma, 21 days at −80°C, nominal 1600 ng/ml
# [10] = rat plasma, room temperature at least 3 h, nominal 2 ng/ml
# [11] = rat plasma, room temperature at least 3 h, nominal 200 ng/ml
# [12] = rat plasma, three freeze-thaw cycles (−80°C to room temperature), nominal 2 ng/ml
# [13] = rat plasma, three freeze-thaw cycles (−80°C to room temperature), nominal 200 ng/ml
# [14] = rat plasma, three freeze-thaw cycles (−80°C to room temperature), nominal 1600 ng/ml
smiles,measurement,setting,value
C=CC(=O)N1CCC(c2ccc(C(N)=O)c(-c3ccc(Oc4ccccc4)cc3)n2)CC1 [Orelabrutinib],AUC(0-inf),[1],3600 ± 1540 ng·h/mL
same,AUC(0-t),[1],3590 ± 1540 ng·h/mL
same,Cmax,[1],1930 ± 1030 ng/mL
same,Tmax,[1],0.56 ± 0.17 h
same,half-life,[1],8.25 ± 5.64 h
same,"Measured concentration, Mean ± SD",[2]; [4],2.0 ± 0.1 ng/mL
same,RE (relative error vs nominal),[2]; [4],−0.2%
same,"Measured concentration, Mean ± SD",[2]; [5],208.0 ± 5.3 ng/mL
same,RE (relative error vs nominal),[2]; [5],4.0%
same,"Measured concentration, Mean ± SD",[2]; [6],1649.2 ± 25.3 ng/mL
same,RE (relative error vs nominal),[2]; [6],3.1%
same,"Measured concentration, Mean ± SD",[2]; [7],2.1 ± 0.1 ng/mL
same,RE (relative error vs nominal),[2]; [7],5.4%
same,"Measured concentration, Mean ± SD",[2]; [8],212.6 ± 7.3 ng/mL
same,RE (relative error vs nominal),[2]; [8],6.3%
same,"Measured concentration, Mean ± SD",[2]; [9],1389.2 ± 147.3 ng/mL
same,RE (relative error vs nominal),[2]; [9],−13.2%
same,"Measured concentration, Mean ± SD",[2]; [10],2.1 ± 0.1 ng/mL
same,RE (relative error vs nominal),[2]; [10],6.1%
same,"Measured concentration, Mean ± SD",[2]; [11],199.3 ± 4.8 ng/mL
same,RE (relative error vs nominal),[2]; [11],−0.4%
same,"Measured concentration, Mean ± SD","[2]; rat plasma, room temperature at least 3 h, nominal 1600 ng/ml",1603.9 ± 24.6 ng/mL
same,"Measured concentration, Mean ± SD",[2]; [12],2.0 ± 0.1 ng/mL
same,RE (relative error vs nominal),[2]; [12],1.0%
same,"Measured concentration, Mean ± SD",[2]; [13],220.3 ± 8.5 ng/mL
same,RE (relative error vs nominal),[2]; [13],10.2%
same,"Measured concentration, Mean ± SD",[2]; [14],1773.7 ± 57.6 ng/mL
same,RE (relative error vs nominal),[2]; [14],10.9%
same,Stability in plasma samples (in words),"[2]; rat plasma, room temperature, 10°C, three freeze (−80°C)/thaw (RT) cycles, −80°C for 21 days",stable
same,Dose dependence of AUC and Cmax,"[3]; 64 healthy subjects, single 20-400 mg or multiple doses for 14 days",increased proportionally
same,Cmax,"[3]; healthy subjects, dose not stated",~300 ng/mL
